Values after ≈ are worked out from the molar mass of the structure shown. Values belong to the compound of their own block, whether it stands above or below them. Where a SMILES comes first, the peptide text is derived from it.
How the values were obtained:
C. acnes = assay: microbe, parasite or virus in culture; assay type: cell-based, Cutibacterium acnes; settings: for MIC: Cutibacterium acnes, 96-well plate, serial dilutions, 32 °C, 13–18 h, 200 rpm, OD 550 nm
Protocol: (§1) Quantification of the antimicrobial resistance against various AMPs was carried out by measuring the bacterial growth in the presence of peptides at serial dilutes in 96 well plates in a microplate (96-well plate) reader Infinite® M200 PRO Multimode Microplate Reader (Tecan, Maennedorf, Switzerland) according to our recent reports. All bacterial strains were incubated at 32 °C for 13–18 h at 200 rpm. Optical density measurements (λ = 550 nm) were taken automatically at 10 min intervals. Antimicrobial resistance activity was quantified as the minimum inhibitory concentration (MIC)—the lowest concentration of a peptide which prevents growth of bacterial cells.

S. aureus = assay: microbe, parasite or virus in culture; assay type: cell-based, Staphylococcus aureus; settings: for MIC: Staphylococcus aureus, 96-well plate, serial dilutions, 32 °C, 13–18 h, 200 rpm, OD 550 nm
Protocol: as §1

E. faecium = assay: microbe, parasite or virus in culture; assay type: cell-based, Enterococcus faecium
Protocol: as §1

P. aeruginosa = assay: microbe, parasite or virus in culture; assay type: cell-based, Pseudomonas aeruginosa; settings: for MIC: Pseudomonas aeruginosa, 96-well plate, serial dilutions, 32 °C, 13–18 h, 200 rpm, OD 550 nm
Protocol: as §1

[1] = system: BALB/c 3T3 murine fibroblast cell line; assay: Cytotoxicity, neutral red uptake assay; assay type: cell-based; settings: for IC50, viability of Balb/c 3T3 cells: 48 h
From the text: The BALB/c 3T3 murine fibroblast cell line was obtained from ATCC (American Type Culture Collection, Manassas, VA, USA). Primary human dermal fibroblasts were isolated by enzymatic digestion from skin biopsies in the Laboratory of Bioanalytical and Biodosimetry Methods, University of Latvia, in accordance with the approval of the Committee of Research Ethics of the Institute of Cardiology and Regenerative Medicine, University of Latvia. Cells were propagated in DMEM medium (Sigma, Irvine, UK), supplemented with 1% penicillin (100 U/mL)–streptomycin (100 μg/mL), and 10% calf serum (Sigma, St. Louis, MO, USA) for Balb/c 3T3 cell line and fetal bovine serum (Sigma, St. Louis, MO, USA) for primary dermal fibroblasts. All cultivations were performed in a humidified 5% CO2 atmosphere at 37 °C.
The cytotoxicity of the peptides was tested in the BALB/c3T3 cell line and primary dermal fibroblasts by the neutral red (NR) uptake assay. Cells were seeded in 96-well plates at a density of 5 × 10^3 cells per well. After 24 h of incubation, peptides in a concentration range of 3.9 to 500 μg/mL were added. Dilutions were made in a cell cultivation medium. Cultivation in the presence of extracts was performed for 48 h. Afterwards, plates were washed with phosphate-buffered saline (PBS) (Sigma, Irvine, UK), and a 25 µg/mL NR solution (Sigma, Irvine, UK) diluted in 5%-fetal-calf-serum-containing-media was added. After 3 h, incubation in a humidified 5% CO2 atmosphere at 37 °C, the plate was washed with PBS, and the NR taken up by viable cells was extracted using desorbing fixative (50% ethanol/1% acetic acid/49% water). Absorbance at 540 nm was measured using a microplate reader Tecan Infinite® 200 PRO (Tecan Group Ltd., Mannedorf, Switzerland). Cytotoxicity was expressed as a concentration-dependent reduction in the uptake of NR, compared to the untreated controls and calculated using the following equation: Cell viability (%)=Abs540nm(treatment)−Abs540nm(background)/Abs540nm(untreated control)−Abs540nm(background)×100%

E. coli = assay: microbe, parasite or virus in culture; assay type: cell-based, Escherichia coli; settings: for MIC: Escherichia coli, 96-well plate, serial dilutions, 32 °C, 13–18 h, 200 rpm, OD 550 nm, lowest concentration preventing growth
Protocol: as §1

K. pneumonia = assay: microbe, parasite or virus in culture; assay type: cell-based, Klebsiella pneumoniae; settings: for MIC: Klebsiella pneumoniae, 96-well plate, serial dilutions, 32 °C, 13–18 h, 200 rpm, OD 550 nm
Protocol: as §1

Compound: CC(C)[C@H](NC(=O)[C@H](Cc1ccc(O)cc1)NC(=O)[C@H](Cc1c[nH]c2ccccc12)NC(=O)[C@H](CS)NC(=O)[C@H](Cc1ccccc1)NC(=O)CN)C(=O)N[C@@H](CS)C(=O)N[C@@H](C)C(=O)N[C@@H](CCCNC(=N)N)C(=O)N[C@@H](CCCNC(=N)N)C(=O)N[C@@H](CC(N)=O)C(=O)NCC(=O)N[C@@H](C)C(=O)N[C@@H](CCCNC(=N)N)C(=O)N[C@H](C(=O)N[C@@H](CS)C(=O)N[C@@H](Cc1ccc(O)cc1)C(=O)N[C@@H](CCCNC(=N)N)C(=O)N[C@@H](CCCNC(=N)N)C(=O)N[C@@H](CS)C(=O)N[C@@H](CC(N)=O)C(=O)O)C(C)C [AA139, reference compound] (H-GFCWYVCARRNGARVCYRRCN-OH; N-terminus and C-terminus assumed)
MIC C. acnes (C. acnes): 63.0 µg/mL (≈ 24.7 µM)
Therapeutic Index C. acnes (C. acnes): 10.0
MIC S. aureus (S. aureus): 8.0 µg/mL (≈ 3.13 µM)
Therapeutic Index S. aureus (S. aureus): 78.5
MIC E. faecium (E. faecium): 16.0 µg/mL (≈ 6.26 µM)
Therapeutic Index E. faecium (E. faecium): 39.3
MIC P. aeruginosa (P. aeruginosa): 16.0 µg/mL (≈ 6.26 µM)
Therapeutic Index P. aeruginosa (P. aeruginosa): 39.3
IC50, viability of Balb/c 3T3 cells [1]: 627.5 µg/mL
reduction of cell viability ([1]; Balb/c 3T3, at 500 μg/mL): 36%
MIC E. coli (E. coli): 4.0 µg/mL (≈ 1.57 µM)
Therapeutic Index E. coli (E. coli): 157.0
MIC K. pneumonia (K. pneumonia): 8.0 µg/mL (≈ 3.13 µM)
Therapeutic Index K. pneumonia (K. pneumonia): 78.5

Compound: CC[C@H]1OC(=O)[C@H](C)[C@@H](O[C@H]2C[C@@](C)(OC)[C@@H](O)[C@H](C)O2)[C@H](C)[C@@H](O[C@@H]2O[C@H](C)C[C@H](N(C)C)[C@H]2O)[C@](C)(O)C[C@@H](C)CN(C)[C@H](C)[C@@H](O)[C@]1(C)O [Azythromycin, Azithromycin dihydrate, reference compound]
MIC (S. aureus): 0.5 µg/mL
MIC (K. pneumonia): 8 µg/mL

Compound: O=C(OOC(=O)c1ccccc1)c1ccccc1 [Benzoyl peroxide, reference compound]
MIC (C. acnes): 80 µg/mL (≈ 330 µM)
MIC (S. aureus): 1250 µg/mL (≈ 5160 µM)
MIC (E. coli): 31 µg/mL (≈ 128 µM)

Compound: [H]/N=C(\N/C(=N/[H])NCCCCCCNC(=N)NC(=N)Nc1ccc(Cl)cc1)Nc1ccc(Cl)cc1 [Chlorhexidine, chlorhexidine, reference compound]
MIC (C. acnes): 1 µg/mL (≈ 1.98 µM)
MIC (S. aureus): 1 µg/mL (≈ 1.98 µM)
MIC (P. aeruginosa): 1 µg/mL (≈ 1.98 µM)
MIC (E. coli): 16 µg/mL (≈ 31.7 µM)

Compound: CC[C@H]1OC(=O)[C@H](C)[C@@H](O[C@H]2C[C@@](C)(OC)[C@@H](O)[C@H](C)O2)[C@H](C)[C@@H](O[C@@H]2O[C@H](C)C[C@H](N(C)C)[C@H]2O)[C@](C)(OC)C[C@@H](C)C(=O)[C@H](C)[C@@H](O)[C@]1(C)O [Claritromycin, clarithromycin, reference compound]
MIC (S. aureus): 0.25 µg/mL (≈ 0.334 µM)
MIC (K. pneumonia): 64 µg/mL (≈ 85.6 µM)

Compound: CNC(C)C1CCC(N)C(OC2C(N)CC(N)C(OC3OCC(C)(O)C(NC)C3O)C2O)O1 (centres unmarked) [Gentamicin, gentamicin, reference compound]
MIC (S. aureus): 0.25 µg/mL (≈ 0.523 µM)
MIC (E. faecium; Enterococcus faecium, 96-well plate, serial dilutions, 32 °C, 13–18 h, 200 rpm, OD 550 nm): 1 µg/mL (≈ 2.09 µM)
MIC (P. aeruginosa): 0.25 µg/mL (≈ 0.523 µM)
MIC (E. coli): 1 µg/mL (≈ 2.09 µM)
MIC (K. pneumonia): 0.25 µg/mL (≈ 0.523 µM)

Continued, in another order:

MIC C. acnes (C. acnes): 16.0 µg/mL (≈ 6.89 µM)
MIC S. aureus (S. aureus): 2.0 µg/mL (≈ 0.862 µM)
MIC E. faecium (E. faecium): 4.0 µg/mL (≈ 1.72 µM)
MIC P. aeruginosa (P. aeruginosa): 16.0 µg/mL (≈ 6.89 µM)
MIC E. coli (E. coli): 31.0 µg/mL (≈ 13.4 µM)
MIC K. pneumonia (K. pneumonia): 16.0 µg/mL (≈ 6.89 µM)
Compound: CC[C@H](C)[C@H](NC(=O)[C@H](CCCNC(=N)N)NC(=O)[C@H](CCCCN)NC(=O)[C@H](C)NC(=O)[C@@H](NC(=O)[C@@H](N)CCCCN)[C@@H](C)CC)C(=O)N[C@@H](Cc1c[nH]c2ccccc12)C(=O)N[C@@H](CCCCN)C(=O)N[C@@H](CCCNC(=N)N)C(=O)N[C@H](C(=O)N[C@@H](Cc1c[nH]c2ccccc12)C(=O)N[C@@H](CCCCN)C(=O)N[C@H](C(=O)N[C@@H](CC(C)C)C(=O)N[C@@H](CCCNC(=N)N)C(=O)N[C@@H](CCCNC(=N)N)C(=O)N[C@@H](CCCNC(=N)N)C(=O)O)[C@@H](C)CC)[C@@H](C)CC [PA13, reference compound] (H-KIAKRIWKRIWKILRRR-OH)
Therapeutic Index C. acnes (C. acnes): 16.4
Therapeutic Index S. aureus (S. aureus): 131.0
Therapeutic Index E. faecium (E. faecium): 65.5
Therapeutic Index P. aeruginosa (P. aeruginosa): 16.4
IC50, viability of Balb/c 3T3 cells [1]: 262 µg/mL
Therapeutic Index E. coli (E. coli): 8.5
Therapeutic Index K. pneumonia (K. pneumonia): 16.4

MIC C. acnes (C. acnes): 0.5 µg/mL (≈ 0.187 µM)
MIC S. aureus (S. aureus): 8.0 µg/mL (≈ 2.99 µM)
MIC E. faecium (E. faecium): 16.0 µg/mL (≈ 5.99 µM)
MIC P. aeruginosa (P. aeruginosa): 4.0 µg/mL (≈ 1.5 µM)
MIC E. coli (E. coli): 8.0 µg/mL (≈ 2.99 µM)
MIC K. pneumonia (K. pneumonia): 31.0 µg/mL (≈ 11.6 µM)
Compound: CC[C@H](C)[C@H](N)C(=O)N[C@@H](C)C(=O)N[C@@H](CCCCN)C(=O)N[C@@H](CCCCN)C(=O)N[C@@H](Cc1ccccc1)C(=O)N[C@@H](Cc1c[nH]c2ccccc12)C(=O)N[C@@H](CCCCN)C(=O)N[C@@H](CCCCN)C(=O)N[C@@H](Cc1ccccc1)C(=O)N[C@@H](Cc1c[nH]c2ccccc12)C(=O)N[C@@H](CCCCN)C(=O)N[C@@H](Cc1ccccc1)C(=O)N[C@@H](Cc1c[nH]c2ccccc12)C(=O)N[C@@H](CCCCN)C(=O)N[C@H](C(=O)N[C@@H](Cc1ccccc1)C(=O)N[C@@H](CCCCN)C(=O)N[C@@H](CCCCN)C(=O)N[C@H](C(=O)N[C@@H](C)C(=O)O)[C@@H](C)CC)[C@@H](C)CC [Peptide R12] (H-IAKKFWKKFWKFWKIFKKIA-OH)
Therapeutic Index C. acnes (C. acnes): 32.0
Therapeutic Index S. aureus (S. aureus): 2.0
Therapeutic Index E. faecium (E. faecium): 1.0
Therapeutic Index P. aeruginosa (P. aeruginosa): 4.0
IC50, viability of Balb/c 3T3 cells [1]: 16.18 µg/mL
Therapeutic Index E. coli (E. coli): 2.0
Therapeutic Index K. pneumonia (K. pneumonia): 0.5

MIC C. acnes (C. acnes): 0.3 µg/mL (≈ 0.114 µM)
MIC S. aureus (S. aureus): 4.0 µg/mL (≈ 1.51 µM)
MIC E. faecium (E. faecium): 16.0 µg/mL (≈ 6.06 µM)
MIC P. aeruginosa (P. aeruginosa): 4.0 µg/mL (≈ 1.51 µM)
MIC K. pneumonia (K. pneumonia): 8.0 µg/mL (≈ 3.03 µM)
Compound: CC[C@H](C)[C@H](N)C(=O)N[C@@H](C)C(=O)N[C@@H](CCCCN)C(=O)N[C@@H](CCCCN)C(=O)N[C@@H](Cc1ccccc1)C(=O)N[C@@H](Cc1c[nH]c2ccccc12)C(=O)N1CCC[C@H]1C(=O)N[C@@H](CCCCN)C(=O)N[C@@H](Cc1ccccc1)C(=O)N[C@@H](Cc1c[nH]c2ccccc12)C(=O)N[C@@H](CCCCN)C(=O)N[C@@H](Cc1ccccc1)C(=O)N[C@@H](Cc1c[nH]c2ccccc12)C(=O)N[C@@H](CCCCN)C(=O)N[C@H](C(=O)N[C@@H](Cc1ccccc1)C(=O)N[C@@H](CCCCN)C(=O)N[C@@H](CCCCN)C(=O)N[C@H](C(=O)N[C@@H](C)C(=O)O)[C@@H](C)CC)[C@@H](C)CC [Peptide R13] (H-IAKKFWPKFWKFWKIFKKIA-OH)
Therapeutic Index C. acnes (C. acnes): 263.3
Therapeutic Index S. aureus (S. aureus): 19.8
Therapeutic Index E. faecium (E. faecium): 4.9
Therapeutic Index P. aeruginosa (P. aeruginosa): 19.8
IC50, viability of Balb/c 3T3 cells [1]: 79.37 µg/mL
Therapeutic Index E. coli (E. coli): 19.8
Therapeutic Index K. pneumonia (K. pneumonia): 9.9

— article PMC10044245, “Comparative Evaluation of Existing and Rationally Designed Novel Antimicrobial Peptides for Treatment of Skin and Soft Tissue Infections” (Antibiotics, 2023)
